Results from the NIST ThermoML archive (doi:10.1021/je060238o).

Experiments:
[1] = refractive index (Na D-line) (dimensionless); conditions: 298.15 K; 101.33 kPa; Liquid; Standard Abbe refractometry
[2] = Liquid; for mass density: 298.15 K, 101.33 kPa; for Normal boiling temperature: Ebulliometric method (Recirculating still)
[3] = refractive index (Na D-line) (dimensionless); xn = mol fraction of the nth substance listed; conditions: 298.15 K, 101 kPa, Liquid, Standard Abbe refractometry
[4] = xn = mol fraction of the nth substance listed; conditions: 298.15 K, 101 kPa, Liquid

CC(C)CO [2-methyl-1-propanol]
Conditions	Normal boiling temperature [°C]	mass density [kg/m3]	refractive index
[1]	–	–	1.3937
[2]	108	797.84	–

CCCCCO [pentan-1-ol]
Conditions	Normal boiling temperature [°C]	mass density [kg/m3]	refractive index
[1]	–	–	1.4077
[2]	137.70	810.96	–

CCC(C)CO (stereo unspecified) [2-methyl-1-butanol] + CC(C)CO
Conditions	mass density, [4] [kg/m3]	refractive index, [3]
x2 = 0.051	814.19	1.40802
x2 = 0.101	813.53	1.40742
x2 = 0.151	812.85	1.40674
x2 = 0.2	812.17	1.40606
x2 = 0.25	811.49	1.40538
x2 = 0.3	810.75	1.40466
x2 = 0.35	810.03	1.40397
x2 = 0.401	809.29	1.40328
x2 = 0.45	808.55	1.40252
x2 = 0.5	807.79	1.40178
x2 = 0.549	807.02	1.40107
x2 = 0.599	806.25	1.40029
x2 = 0.65	805.45	1.39946
x2 = 0.701	804.63	1.39866
x2 = 0.749	803.86	1.3979
x2 = 0.8	803	1.39706
x2 = 0.85	802.17	1.3962
x2 = 0.899	801.17	1.39533
x2 = 0.95	800.1	1.3945

CC(C)CO [2-methyl-1-propanol] + CCCCCO
Conditions	mass density, [4] [kg/m3]	refractive index, [3]
x1 = 0.05	810.3	1.4071
x1 = 0.1	809.7	1.4065
x1 = 0.15	809.09	1.40588
x1 = 0.2	808.51	1.40524
x1 = 0.249	807.94	1.4046
x1 = 0.299	807.34	1.40394
x1 = 0.35	806.75	1.40326
x1 = 0.4	806.13	1.40259
x1 = 0.45	805.53	1.40193
x1 = 0.499	804.9	1.40124
x1 = 0.549	804.29	1.40055
x1 = 0.6	803.64	1.39983
x1 = 0.65	803.01	1.3991
x1 = 0.699	802.41	1.39834
x1 = 0.75	801.73	1.39758
x1 = 0.8	801.07	1.39683
x1 = 0.85	800.39	1.39604
x1 = 0.9	799.67	1.39524
x1 = 0.95	798.84	1.39447

CC(C)CCO [3-methylbutan-1-ol] + CC(C)CO
Conditions	mass density, [4] [kg/m3]	refractive index, [3]
x2 = 0.051	805.95	1.40469
x2 = 0.099	805.61	1.40418
x2 = 0.15	805.25	1.40371
x2 = 0.199	804.88	1.40318
x2 = 0.254	804.48	1.4026
x2 = 0.3	804.15	1.40212
x2 = 0.35	803.77	1.40161
x2 = 0.4	803.39	1.40109
x2 = 0.445	803.05	1.4006
x2 = 0.5	802.62	1.39997
x2 = 0.549	802.23	1.3994
x2 = 0.6	801.83	1.39879
x2 = 0.65	801.42	1.39821
x2 = 0.7	800.64	1.39764
x2 = 0.751	800.19	1.39701
x2 = 0.799	799.74	1.39636
x2 = 0.849	799.27	1.39567
x2 = 0.899	798.8	1.395
x2 = 0.95	798.31	1.39435

CC(C)CCO [3-methylbutan-1-ol]
Conditions	Normal boiling temperature [°C]	mass density [kg/m3]	refractive index
[1]	–	–	1.40515
[2]	131.12	806.78	–

CCC(C)CO (stereo unspecified) [2-methyl-1-butanol]
Conditions	Normal boiling temperature [°C]	mass density [kg/m3]	refractive index
[1]	–	–	1.40872
[2]	128.78	814.87	–
